For 5 cell lines, relative viability results are on record in the supplement of paper PMC10307832.

What all share (experiment): relative viability (nuclei count vs DMSO), 5 days (fraction); higher = more cells survive
Compound in assay [1]: COc1cc2nc(N3CCCN(C)CC3)nc(NC3CCN(Cc4ccccc4)CC3)c2cc1OC + Nc1nc2[nH]cc(CCc3ccc(C(=O)N[C@@H](CCC(=O)O)C(=O)O)cc3)c2c(=O)[nH]1 [Pemetrexed] (partner 0.2 µM)
The essentials:
(§1)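 Lung cancer cell lines were pin-tool dosed in 1536-well plates on the day after seeding, with either a lone drug or a fixed anchor-drug dose plus five library-drug doses (not always all listed) in √10 steps. Nuclei were counted on 4× images after 5 days. Relative viability is the ratio of treated-well to vehicle-well nuclei counts, with each value a median of duplicate plates.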

Compound in assay [2]: COc1cc2nc(N3CCCN(C)CC3)nc(NC3CCN(Cc4ccccc4)CC3)c2cc1OC + CC(C)C[C@H](NC(=O)[C@H](Cc1ccccc1)NC(=O)c1cnccn1)B(O)O [Bortezomib] (partner 0.002 µM)
The method, boiled down: as §1

Compound in the assay “AZD6482 + Phenformin”: Cc1cc([C@@H](C)Nc2ccccc2C(=O)O)c2nc(N3CCOCC3)cc(=O)n2c1 [AZD6482] + N=C(N)NC(=N)NCCc1ccccc1 [Phenformin] (partner 250 µM)
The essentials: as §1

Compound in assay [3]: COc1cc2nc(N3CCCN(C)CC3)nc(NC3CCN(Cc4ccccc4)CC3)c2cc1OC
The essentials:
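Lung cancer cell lines received five library-drug doses (not always all listed) spaced by √10, pinned on vehicle-anchored 1536-well plates after an overnight stay at 37 °C. Five days later, with no medium change, nuclei were Hoechst-stained, imaged at 4× and counted with MetaXpress. Viability is treated-well nuclei relative to vehicle-well nuclei, as a median across plates. Passing plates had control CV below 25% and at least one doubling.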

As for PC-3 [JPC-3], the relative viability in assay [1] (first compound 0.2 µM) was 0.972; in assay [1] (first compound 0.6325 µM), 1.15; in assay [1] (first compound 2 µM) it was 1.11; in assay [1] (first compound 6.325 µM), 1.01; in assay [2] (first compound 0.2 µM), 0.793; in assay [2] (first compound 0.6325 µM) it was 0.787. Moreover, the relative viability amounted to 0.962 in assay [2] (first compound 2 µM); 0.675 in assay [2] (first compound 6.325 µM); 0.418 with AZD6482 + Phenformin (first compound 0.08 µM); 0.492 with AZD6482 + Phenformin (first compound 0.253 µM); 0.508 with AZD6482 + Phenformin (first compound 0.8 µM); 0.406 in the assay with AZD6482 + Phenformin (first compound 2.53 µM). For the same cell line, the relative viability with AZD6482 + Phenformin (first compound 8 µM) was 0.391; in assay [3] (0.2 µM) it was 1.06; in assay [3] (0.6325 µM), 1.02; in assay [3] (2 µM) it was 1.06; in assay [3] (6.325 µM) it was 0.959.

On to PC-14, for which the relative viability turned out to be 0.133 in assay [1] (first compound 0.2 µM); 0.153 in assay [1] (first compound 0.6325 µM); 0.118 in assay [1] (first compound 2 µM); 0.0737 in assay [1] (first compound 6.325 µM); 0.984 in assay [2] (first compound 0.2 µM); 0.72 in assay [2] (first compound 0.6325 µM). The relative viability in assay [2] (first compound 2 µM) was 0.981; in assay [2] (first compound 6.325 µM), 0.461; with AZD6482 + Phenformin (first compound 0.08 µM) it was 0.488; with AZD6482 + Phenformin (first compound 0.253 µM), 0.438; in the assay with AZD6482 + Phenformin (first compound 0.8 µM), 0.59; with AZD6482 + Phenformin (first compound 8 µM), 0.534. In addition, the relative viability in assay [3] (0.2 µM) was determined as 0.97; in assay [3] (0.6325 µM), 1.05; in assay [3] (2 µM), 0.977; in assay [3] (6.325 µM), 0.475.

Turning to RERF-LC-KJ, the relative viability in assay [1] (first compound 0.2 µM) was determined as 0.419; in assay [1] (first compound 0.6325 µM), 0.455; in assay [1] (first compound 2 µM) it was 0.464; in assay [1] (first compound 6.325 µM) it was 0.447; in assay [2] (first compound 0.2 µM), 1.12; in assay [2] (first compound 0.6325 µM), 1.08. Further, the relative viability is 1.14 in assay [2] (first compound 2 µM); 1.02 in assay [2] (first compound 6.325 µM); 0.424 in the assay with AZD6482 + Phenformin (first compound 0.08 µM); 0.401 in the assay with AZD6482 + Phenformin (first compound 0.253 µM); 0.368 with AZD6482 + Phenformin (first compound 0.8 µM); 0.394 in the assay with AZD6482 + Phenformin (first compound 2.53 µM). For the same cell line, the relative viability with AZD6482 + Phenformin (first compound 8 µM) turned out to be 0.292; in assay [3] (0.2 µM), 0.995; in assay [3] (0.6325 µM), 0.977; in assay [3] (2 µM), 1.04; in assay [3] (6.325 µM), 0.912.

Take SK-LU-1: the relative viability stood at 0.952 in assay [1] (first compound 0.2 µM); 0.949 in assay [1] (first compound 0.6325 µM); 1.03 in assay [1] (first compound 2 µM); 0.889 in assay [1] (first compound 6.325 µM); 1.14 in assay [2] (first compound 0.2 µM); 1.19 in assay [2] (first compound 0.6325 µM). The relative viability in assay [2] (first compound 2 µM) amounted to 1.5; in assay [2] (first compound 6.325 µM), 1.07; with AZD6482 + Phenformin (first compound 0.253 µM), 0.454; in the assay with AZD6482 + Phenformin (first compound 0.8 µM) it was 0.502; in the assay with AZD6482 + Phenformin (first compound 2.53 µM), 0.347; with AZD6482 + Phenformin (first compound 8 µM), 0.237. Moreover, the relative viability is 1.01 in assay [3] (0.2 µM), 1.01 in assay [3] (0.6325 µM), 1.08 in assay [3] (2 µM) and 1.02 in assay [3] (6.325 µM).

As to SW 1573, the relative viability in assay [1] (first compound 0.2 µM) was found to be 0.797; in assay [1] (first compound 0.6325 µM) it was 0.682; in assay [1] (first compound 2 µM), 0.733; in assay [1] (first compound 6.325 µM), 0.623; in assay [2] (first compound 0.2 µM) it was 1.16; in assay [2] (first compound 0.6325 µM), 0.893. Moreover, the relative viability in assay [2] (first compound 2 µM) worked out at 0.882; in assay [2] (first compound 6.325 µM), 0.853; with AZD6482 + Phenformin (first compound 0.08 µM), 0.301; with AZD6482 + Phenformin (first compound 0.253 µM) it was 0.296; in the assay with AZD6482 + Phenformin (first compound 0.8 µM), 0.383; with AZD6482 + Phenformin (first compound 2.53 µM), 0.19. Further, the relative viability was determined as 0.221 with AZD6482 + Phenformin (first compound 8 µM); 0.906 in assay [3] (0.2 µM); 0.983 in assay [3] (0.6325 µM); 1.02 in assay [3] (2 µM); 0.651 in assay [3] (6.325 µM).
